Where “and” joins values, the source holds several entries; their conditions need not be identical. Equal values may be shown once. Toxic doses and inconclusive results are not listed.
System: BDF1 mice, L1210 leukemia sc, survival T/C
Assay: NCI In Vivo Anticancer Drug Screen. Data for tumor model L1210 Leukemia (subcutaneous) in B6D2F1 (BDF1) mice
Conditions: higher = longer survival
Outline: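 Transplantable tumor-bearing mice; survival or tumor size recorded; result = T/C, treated vs vehicle control.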

## Nc1nc(=S)c2[nH]cnc2[nH]1
endpoint: median survival time, dose: 0.37 mg/kg/injection, schedule: Q01DX009 (sc), vehicle: other
  T/C: 100 % of control and 102 % of control
endpoint: median survival time, dose: 0.47 mg/kg/injection, schedule: Q01DX Z (sc), vehicle: methylcellulose (MC)
  T/C: 104 % of control and 110 % of control
endpoint: median survival time, dose: 0.65 mg/kg/injection, schedule: Q01DX Z (sc), vehicle: methylcellulose (MC)
  T/C: 100 % of control
endpoint: median survival time, dose: 0.75 mg/kg/injection, schedule: Q01DX009 (sc), vehicle: other
  T/C: 110 % of control and 111 % of control
endpoint: median survival time, dose: 0.78 mg/kg/injection, schedule: Q01DX Z (sc), vehicle: methylcellulose (MC)
  T/C: 100 % of control and 120 % of control
endpoint: median survival time, dose: 1.0 mg/kg/injection, schedule: Q01DX Z (sc), vehicle: other
  T/C: 100 % of control
endpoint: median survival time, dose: 1.08 mg/kg/injection, schedule: Q01DX Z (sc), vehicle: methylcellulose (MC)
  T/C: 109 % of control
endpoint: median survival time, dose: 1.3 mg/kg/injection, schedule: Q01DX Z (sc), vehicle: methylcellulose (MC)
  T/C: 118 % of control
endpoint: median survival time, dose: 1.5 mg/kg/injection, schedule: Q01DX009 (sc), vehicle: other
  T/C: 150 % of control
endpoint: median survival time, dose: 1.5 mg/kg/injection, schedule: Q## X009 (sc), vehicle: other
  T/C: 150 % of control
endpoint: median survival time, dose: 1.8 mg/kg/injection, schedule: Q01DX Z (oral), vehicle: methylcellulose (MC)
  T/C: 109 % of control
endpoint: median survival time, dose: 2.0 mg/kg/injection, schedule: Q02DX Z (sc), vehicle: other
  T/C: 118 % of control
endpoint: median survival time, dose: 2.16 mg/kg/injection, schedule: Q01DX Z (oral), vehicle: methylcellulose (MC)
  T/C: 109 % of control
endpoint: median survival time, dose: 2.5 mg/kg/injection, schedule: Q02DX009 (sc), vehicle: other
  T/C: 152 % of control
endpoint: median survival time, dose: 2.5 mg/kg/injection, schedule: Q02DX Z (sc), vehicle: other
  T/C: 155 % of control
endpoint: median survival time, dose: 3.0 mg/kg/injection, schedule: Q01DX009 (sc), vehicle: other
  T/C: 150 % of control and 152 % of control and 156 % of control
endpoint: median survival time, dose: 3.0 mg/kg/injection, schedule: Q01DX Z (oral), vehicle: methylcellulose (MC)
  T/C: 118 % of control
endpoint: median survival time, dose: 3.0 mg/kg/injection, schedule: Q01DX Z (sc), vehicle: methylcellulose (MC)
  T/C: 154 % of control
endpoint: median survival time, dose: 3.0 mg/kg/injection, schedule: Q## X009 (sc), vehicle: other
  T/C: 152 % of control
endpoint: median survival time, dose: 3.6 mg/kg/injection, schedule: Q01DX Z (oral), vehicle: methylcellulose (MC)
  T/C: 109 % of control
endpoint: median survival time, dose: 3.6 mg/kg/injection, schedule: Q01DX Z (sc), vehicle: methylcellulose (MC)
  T/C: 150 % of control
endpoint: median survival time, dose: 4.0 mg/kg/injection, schedule: Q02DX Z (sc), vehicle: other
  T/C: 159 % of control
endpoint: median survival time, dose: 5.0 mg/kg/injection, schedule: Q01DX Z (sc), vehicle: methylcellulose (MC)
  T/C: 154 % of control
endpoint: median survival time, dose: 5.0 mg/kg/injection, schedule: Q02DX009 (sc), vehicle: other
  T/C: 165 % of control
endpoint: median survival time, dose: 5.0 mg/kg/injection, schedule: Q02DX Z (sc), vehicle: other
  T/C: 172 % of control
endpoint: median survival time, dose: 6.0 mg/kg/injection, schedule: Q01DX009 (sc), vehicle: other
  T/C: 155 % of control and 162 % of control
endpoint: median survival time, dose: 6.0 mg/kg/injection, schedule: Q01DX Z (oral), vehicle: methylcellulose (MC)
  T/C: 113 % of control
endpoint: median survival time, dose: 6.0 mg/kg/injection, schedule: Q01DX Z (sc), vehicle: methylcellulose (MC)
  T/C: 150 % of control
endpoint: median survival time, dose: 8.0 mg/kg/injection, schedule: Q01DX Z (sc), vehicle: other
  T/C: 154 % of control
endpoint: median survival time, dose: 8.0 mg/kg/injection, schedule: Q02DX Z (sc), vehicle: other
  T/C: 154 % of control
endpoint: median survival time, dose: 8.4 mg/kg/injection, schedule: Q01DX Z (oral), vehicle: methylcellulose (MC)
  T/C: 163 % of control
endpoint: median survival time, dose: 10.0 mg/kg/injection, schedule: Q01DX Z (oral), vehicle: methylcellulose (MC)
  T/C: 118 % of control
endpoint: median survival time, dose: 10.0 mg/kg/injection, schedule: Q01DX Z (sc), vehicle: methylcellulose (MC)
  T/C: 150 % of control
endpoint: median survival time, dose: 10.0 mg/kg/injection, schedule: Q02DX009 (sc), vehicle: other
  T/C: 160 % of control
endpoint: median survival time, dose: 10.0 mg/kg/injection, schedule: Q02DX Z (sc), vehicle: other
  T/C: 166 % of control
endpoint: median survival time, dose: 16.0 mg/kg/injection, schedule: Q02DX Z (sc), vehicle: other
  T/C: 150 % of control
endpoint: median survival time, dose: 17.0 mg/kg/injection, schedule: Q01DX Z (oral), vehicle: methylcellulose (MC)
  T/C: 118 % of control
endpoint: median survival time, dose: 20.0 mg/kg/injection, schedule: Q02DX Z (sc), vehicle: other
  T/C: 150 % of control
endpoint: median survival time, dose: 28.0 mg/kg/injection, schedule: Q01DX Z (oral), vehicle: methylcellulose (MC)
  T/C: 104 % of control
endpoint: median survival time, dose: 32.0 mg/kg/injection, schedule: Q02DX Z (sc), vehicle: other
  T/C: 154 % of control
endpoint: median survival time, dose: 39.0 mg/kg/injection, schedule: Q01DX Z (oral), vehicle: methylcellulose (MC)
  T/C: 154 % of control
endpoint: median survival time, dose: 40.0 mg/kg/injection, schedule: Q02DX Z (sc), vehicle: other
  T/C: 155 % of control
endpoint: median survival time, dose: 47.0 mg/kg/injection, schedule: Q01DX Z (oral), vehicle: methylcellulose (MC)
  T/C: 109 % of control

## NC(=O)c1ccc([N+](=O)[O-])cc1
endpoint: median survival time, dose: 23.0 mg/kg/injection, schedule: Q01DX Z (sc), vehicle: methylcellulose (MC)
  T/C: 90 % of control
endpoint: median survival time, dose: 39.0 mg/kg/injection, schedule: Q01DX Z (sc), vehicle: methylcellulose (MC)
  T/C: 100 % of control
endpoint: median survival time, dose: 65.0 mg/kg/injection, schedule: Q01DX Z (sc), vehicle: methylcellulose (MC)
  T/C: 90 % of control
endpoint: median survival time, dose: 108.0 mg/kg/injection, schedule: Q01DX Z (sc), vehicle: methylcellulose (MC)
  T/C: 90 % of control
endpoint: median survival time, dose: 180.0 mg/kg/injection, schedule: Q01DX Z (sc), vehicle: methylcellulose (MC)
  T/C: 90 % of control
endpoint: median survival time, dose: 300.0 mg/kg/injection, schedule: Q01DX Z (sc), vehicle: methylcellulose (MC)
  T/C: 100 % of control
endpoint: median survival time, dose: 500.0 mg/kg/injection, schedule: Q01DX Z (sc), vehicle: methylcellulose (MC)
  T/C: 100 % of control

## COc1cc(NS(C)(=O)=O)ccc1Nc1c2ccccc2nc2ccccc12
endpoint: mean survival time, dose: 0.75 mg/kg/injection, schedule: Q01DX009 (ip), vehicle: saline
  T/C: 97 % of control
endpoint: mean survival time, dose: 1.25 mg/kg/injection, schedule: Q01DX009 (ip), vehicle: saline
  T/C: 100 % of control
endpoint: mean survival time, dose: 1.5 mg/kg/injection, schedule: Q01DX009 (ip), vehicle: saline
  T/C: 99 % of control
endpoint: mean survival time, dose: 2.5 mg/kg/injection, schedule: Q01DX009 (ip), vehicle: saline
  T/C: 104 % of control
endpoint: mean survival time, dose: 3.0 mg/kg/injection, schedule: Q01DX009 (ip), vehicle: saline
  T/C: 110 % of control
endpoint: mean survival time, dose: 5.0 mg/kg/injection, schedule: Q01DX009 (ip), vehicle: saline
  T/C: 103 % of control and 112 % of control
endpoint: mean survival time, dose: 6.0 mg/kg/injection, schedule: Q01DX009 (ip), vehicle: saline
  T/C: 110 % of control
endpoint: mean survival time, dose: 10.0 mg/kg/injection, schedule: Q01DX009 (ip), vehicle: saline
  T/C: 100 % of control
endpoint: median survival time, dose: 0.5 mg/kg/injection, schedule: Q01DX009 (ip), vehicle: other
  T/C: 103 % of control
endpoint: median survival time, dose: 1.0 mg/kg/injection, schedule: Q01DX009 (ip), vehicle: other
  T/C: 102 % of control
endpoint: median survival time, dose: 2.0 mg/kg/injection, schedule: Q01DX009 (ip), vehicle: other
  T/C: 103 % of control
endpoint: median survival time, dose: 4.0 mg/kg/injection, schedule: Q01DX009 (ip), vehicle: other
  T/C: 118 % of control

Reference: PubChem BioAssay AID250 (DTP/NCI, 2004)
